Laboratory results taken from patent publication US20010033854A1, “Anti-microbial compositions” (priority 2000, published 2001).
Like-named read-outs stand apart in the source and are kept apart here.

Tests used:
[1] = system: Staphlococcus epidermidis; assay: Growth inhibition of a relevant micro-organism by chelator; type: cell-based; details: chelator at 3×10^−6 mol.dm^−3 or less
Excerpt: Inhibition is considered significant when growth of the relevant micro-organism on a supporting medium can be reduced by at least 30% preferably by at least 45%.

relevant micro-organism = details: cited from earlier work

SMILES | Significant inhibition of growth (reduced by at least 30%) [1] | also measured
O=C(O)CN(CC(=O)O)[C@@H]1CCCC[C@H]1N(CC(=O)O)CC(=O)O (relative stereo) [CDTA, trans-1,2-diaminocyclohexane-N,N,N′,N′-tetraacetic acid] | exclude | 
O=C(O)CN(CCN(CC(=O)O)CC(=O)O)CCN(CC(=O)O)CC(=O)O [DTPA, diethylenetriaminepentaacetic acid] | capable of achieving significant inhibition | 
O=C(O)CN(CCN(CC(=O)O)CC(=O)O)CC(=O)O [EDTA, ethylenediaminetetraacetic acid] | exclude | 
O=C(O)CN(CCN(CCN(CC(=O)O)CC(=O)O)CC(=O)O)CCN(CC(=O)O)CC(=O)O [TTHA, triethylenetetraaminehexaacetic acid] | capable of achieving significant inhibition | 
CCO [ethanol] |  | MIC (relevant micro-organism; ethanol and similar alkanols): greater than 1 mg.ml^−1
CC(C)=CCCC(C)=CCCC(C)=CCO [farnesol, 3,7,11-trimethyldodeca-2,6,10-trienol] |  | MIC (relevant micro-organism; literature values): ca. 25 μg.ml^−1
Oc1cc(Cl)ccc1Oc1ccc(Cl)cc1Cl [triclosan, 2′,4,4′-trichloro-2′-hydroxydiphenyl ether] |  | MIC (relevant micro-organism; literature values): 0.01 to 10 µg/mL
